pIC50: −log10 of the molar value. Active and inactive are the calls of the source. The calls are words filed in the database; no cut-off is given here.
Experiments:
[1] = target: T1, Solute carrier family 22 member 12 (Homo sapiens, UniProt Q96S37); assay: Inhibition of URAT1 (unknown origin)-mediated uric acid uptake at 3 uM relative to control
T1 sequence (Q96S37 whole entry): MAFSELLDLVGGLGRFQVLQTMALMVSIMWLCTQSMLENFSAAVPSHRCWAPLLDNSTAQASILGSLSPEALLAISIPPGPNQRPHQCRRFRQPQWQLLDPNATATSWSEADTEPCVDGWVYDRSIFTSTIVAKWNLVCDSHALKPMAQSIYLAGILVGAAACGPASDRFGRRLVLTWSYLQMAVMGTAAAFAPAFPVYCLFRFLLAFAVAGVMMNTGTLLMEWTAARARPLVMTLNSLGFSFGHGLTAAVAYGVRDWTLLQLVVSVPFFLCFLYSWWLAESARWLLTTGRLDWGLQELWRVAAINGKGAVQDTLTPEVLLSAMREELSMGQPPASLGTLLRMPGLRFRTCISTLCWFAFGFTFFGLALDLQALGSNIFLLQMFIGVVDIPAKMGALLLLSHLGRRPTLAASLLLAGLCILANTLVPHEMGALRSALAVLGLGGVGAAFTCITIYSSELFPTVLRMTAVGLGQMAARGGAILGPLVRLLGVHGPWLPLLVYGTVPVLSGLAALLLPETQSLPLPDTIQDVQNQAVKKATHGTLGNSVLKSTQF

[2] = Inhibition of uric acid uptake in human RPTEC; assay type: functional, tissue-based
[3] = Drug excretion in rat urine at 3 mg/kg, po measured for 4 hrs; assay type: ADME, organism-based; settings: read-out: Drug excretion
[4] = Hepatotoxicity assessed as induction of mitochondrial (unknown origin) toxicity by measuring mitochondrial inhibitory activity at 100 uM relative to control; settings: mitochondria (unknown origin)
[5] = Hepatotoxicity assessed as induction of mitochondrial (unknown origin) toxicity by measuring mitochondrial inhibitory activity; settings: mitochondria (unknown origin)
[6] = Cmax in rat at 3 mg/kg, po; assay type: ADME, organism-based; parameters: route oral, dose 3 mg/kg; settings: in vivo
Cytochrome P450 2C9 = Cytochrome P450 2C9 (Homo sapiens, UniProt P11712); assay: Inhibition of CYP2C9 (unknown origin); assay type: ADME
Sapajus apella = assay: Uricosuric activity in Cebus apella assessed as decrease in plasma urate level at 300 mg/kg, po measured for 24 hrs; assay type: functional, organism-based

Sequence of Cytochrome P450 2C9 (P11712 whole entry): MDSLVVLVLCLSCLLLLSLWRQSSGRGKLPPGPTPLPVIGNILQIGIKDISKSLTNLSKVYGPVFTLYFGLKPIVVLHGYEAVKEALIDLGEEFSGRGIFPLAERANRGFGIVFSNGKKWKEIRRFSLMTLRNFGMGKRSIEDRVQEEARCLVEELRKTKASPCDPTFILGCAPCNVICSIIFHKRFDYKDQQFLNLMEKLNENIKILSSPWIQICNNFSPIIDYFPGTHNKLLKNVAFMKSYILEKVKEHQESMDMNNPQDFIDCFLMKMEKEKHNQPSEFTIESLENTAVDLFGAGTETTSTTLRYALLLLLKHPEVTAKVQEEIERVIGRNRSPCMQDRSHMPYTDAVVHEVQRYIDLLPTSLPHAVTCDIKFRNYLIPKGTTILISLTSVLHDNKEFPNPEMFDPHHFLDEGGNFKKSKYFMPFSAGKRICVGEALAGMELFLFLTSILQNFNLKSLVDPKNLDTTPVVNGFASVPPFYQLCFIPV

SMILES | inhibition at 3 µM [1] [%] | pIC50 [2] | dose excreted at 4 h [3] [%] | inhibition at 100 µM [4] [%] | pIC50 [5] | Cmax [6] [ng/mL] | pIC50 (Cytochrome P450 2C9) | Activity (Sapajus apella)
CCc1cc(C(=O)N2CCSC2)cc(C#N)c1O | 67 | 3.91 | 9.5 | 25 |  |  |  | 
N#Cc1cc(C(=O)N2CC=CC2)cc(Cl)c1O | 66 | < 3.00 |  | 5 |  |  |  | 
O=C(C1=CCCC1)c1cc(Cl)c(O)c(Cl)c1 |  |  |  |  | 5.00 |  |  | 
CCCc1cc(C(=O)N2CC=CC2)cc(C#N)c1O | 70 | < 3.00 |  | 7 |  |  |  | 
N#Cc1cc(C(=O)N2CCSC2)cc(C#N)c1O | 62 | 3.21 |  | 23 |  |  |  | 
CC(C)(C)c1cc(C(=O)N2CCC2)cc(C#N)c1O | 71 | < 3.00 |  | 41 |  |  |  | 
CC1=CCN(C(=O)c2cc(C#N)c(O)c(C(F)(F)F)c2)C1 | 88 | 3.86 | 10 | 9 |  | 2220 | 4.03 | 
CCCc1cc(C(=O)N2CC=CC2)cc(C(F)(F)F)c1O | 49 | 3.04 |  | 47 |  |  |  | 
N#Cc1cc(C(=O)N2CCC2)cc(C(F)(F)F)c1O | 75 | < 3.00 |  | 17 |  |  |  | 
N#Cc1cc(C(=O)N2CC=CC2)cc(Br)c1O | 69 | 3.13 |  | 0 |  |  |  | 
CCc1cc(C(=O)n2cccc2)cc(C#N)c1O | 83 | < 3.00 |  |  | 5.17 |  |  | 
N#Cc1cc(C(=O)N2CC=CC2)cc(I)c1O | 79 | < 3.00 |  | 8 |  |  |  | 
N#Cc1cc(C(=O)N2CCS(=O)(=O)C2)cc(C(F)(F)F)c1O | 55 | 3.57 |  | -3 |  |  |  | 
N#Cc1cc(C(=O)N2CCSC2)cc(Br)c1O | 72 | 3.40 |  | 23 |  |  |  | 
CSc1cc(C(=O)N2CC=CC2)cc(C#N)c1O | 58 | < 3.00 |  | 6 |  |  |  | 
N#Cc1cc(C(=O)N2CCCC2)cc(C(F)(F)F)c1O | 66 | < 3.00 |  | 18 |  |  |  | 
CCc1oc2ccccc2c1C(=O)c1cc(Br)c(O)c(Br)c1 [BENZBROMARONE] | 91 | 5.17 |  |  | 5.51 |  |  | 
CC(C)(C)c1cc(C(=O)N2CC=CC2)cc(C#N)c1O | 92 | 3.51 |  | 60 | 4.19 |  |  | 
N#Cc1cc(C(=O)N2CCSC2)cc(C(F)(F)F)c1O | 84 | 3.69 | 9 | 29 |  | 3700 | < 4.00 | 
O=C(C1=CCCC1)c1cc(Br)c(O)c(Br)c1 |  |  |  |  | 5.18 |  |  | 
N#Cc1cc(C(=O)N2CC=CC2)cc(C2CC2)c1O | 69 | < 3.00 |  | -7 |  |  |  | 
CCc1cc(C(=O)N2CC=CC2)cc(C#N)c1O | 54 | < 3.00 |  | 17 | < 4.00 |  |  | 
N#Cc1cc(C(=O)N2CC=CC2)cc(C(F)(F)F)c1O | 83 | 3.09 | 23 | -1 |  | 2610 | 4.28 | Active
CC(C)(C)c1cc(C(=O)N2CCCC2)cc(C#N)c1O | 84 | < 3.00 |  | 22 | < 4.00 |  |  | 
O=C(c1cc(Br)c(O)c(Br)c1)N1CC=CC1 |  |  |  | 22 | < 4.00 |  |  | 
O=C(c1cc(Cl)c(O)c(Cl)c1)N1CS(=O)(=O)c2ccccc21 [DOTINURAD] |  |  |  |  |  |  | 5.24 | 
CC(C)(C)c1cc(C(=O)N2CCSC2)cc(C#N)c1O | 92 | 3.59 |  | 77 | 4.57 |  |  | 
Cc1cc(C(=O)N2CC=CC2)cc(C#N)c1O | 25 | < 3.00 |  | -10 |  |  |  | 

— ChEMBL document CHEMBL4732254, “Novel monocyclic amide-linked phenol derivatives without mitochondrial toxicity have potent uric acid-lowering activity” (Bioorg Med Chem Lett, 2021)
